# System: Plasmodium falciparum
# Assay: GSK_TCMDC: Inhibition of Plasmodium falciparum 3D7 in whole erythrocytes, using parasite LDH activity as an index of growth.
# Format: functional, organism-based
# Settings: Plasmodium falciparum, 3D7
row,Compound,XC50
1,C[C@H](Cc1ccc(OCCCCOc2ccc(C[C@@H](C)NC[C@H](O)c3cccc(Cl)c3)cc2)cc1)NC[C@H](O)c1cccc(Cl)c1,756 nM
2,c1ccc(Oc2ccc(Nc3ccnc(Nc4ccc(OCCN5CCCCC5)cc4)n3)cc2)cc1,604 nM
3,CCOc1ccc2c(c1)OC(c1ccccc1)(C(F)(F)F)NC2=O (stereo unspecified),167 nM
4,CC(C)N1CCN(C(CN2CCN(CCCOc3cccc(-c4ccccc4)c3)CC2)c2ccc(F)cc2)CC1 (stereo unspecified),892 nM
5,C[C@@H](CC1CCCCC1)NCc1cccc(NS(=O)(=O)c2ccc(O)c(-c3ccno3)c2)c1,376 nM
6,Cc1cc(N[C@@H](Cc2ccccc2)C(=O)NCc2cccc(F)c2)nc(NCCOc2ccccc2)n1,786 nM
7,CCCc1cc(Cc2cnc(N)nc2N)cc(CCC)c1OC,893 nM
8,COc1cc(CNCCC(C)C)ccc1OCc1cccc(COc2ccc(CNCCC(C)C)cc2OC)c1,492 nM
9,CC(C)(C)C(=O)Nc1ccc(C(=O)Nc2cccc(-c3nc4ccccc4[nH]3)c2)cc1,282 nM
10,CCCCCCN1CCN(Cc2cccc(NC(=O)c3cccc(OCC)c3)c2)CC1,1110 nM
11,CCC[C@@H]([C@@H](CC1CCCCC1)C(=O)N[C@@H](CCCCNS(C)(=O)=O)C(=O)Nc1nccs1)N(O)C=O,81.1 nM
12,O=C(Nc1cc(C(F)(F)F)cc(C(F)(F)F)c1)N1CCC(CN2CCC(c3c[nH]c4ccccc34)CC2)CC1,187 nM
13,O=C(Nc1cccc(C(F)(F)F)c1)c1ccc(S(=O)(=O)NCC2CCN(CC3CCCCC3)CC2)cc1,320 nM
14,Cc1nc(C)c(-c2ccc(S(=O)(=O)c3ccc(Cl)cc3)cc2)c(O)c1Cl,140 nM
15,COc1cc(CN=C(S)NN=C(C)c2ccccn2)cc(OC)c1OC,396 nM
16,CC(C)C[C@H](NC(=O)c1ccc(OCCN2CCOCC2)cc1)C(=O)N[C@H](/C=N/N(C)C(=O)c1ccccc1)CCc1ccccc1,269 nM
17,COc1ccc(CCN(C)CCCCc2ccc(NC(=O)c3cccc4c(=O)c5cc(F)ccc5sc34)cc2)cc1OC,897 nM
18,COc1ccccc1-c1nc2nc(N)nc(N)c2nc1-c1ccccc1OC,1250 nM
19,CCc1nc(N)nc(N)c1-c1cccc(Cl)c1,193 nM
20,c1ccc(OCCOc2ccc(Nc3ccnc4cc5ccccc5cc34)cc2)cc1,252 nM
21,CCO[C@H]1CN[C@H](C#Cc2cc3c(Nc4ccc(OCc5cccc(F)c5)c(Cl)c4)ncnc3s2)C1,939 nM
22,Cc1ccc(C(=O)Nc2ccc(C)c(OC3CCN(CCC(C)C)C3)c2)cc1 (stereo unspecified),793 nM
23,Cc1ccc(NC(=O)c2cnc(N3CCN(c4ccncc4)CC3)c(Cl)c2)cc1,965 nM
24,O=C(NCc1cccs1)[C@H](Cc1ccccc1)Nc1ccnc(NCCc2ccccc2)n1,1050 nM

row,Compound,XC50
1,N=C(N)Nc1ccc(C(=O)O)c(O)c1,1030 nM
2,CC1(C)NC(N)=NC(=N)N1OCCCSc1ccccc1,3.2 nM
3,Cc1cc(NC(=O)Nc2ccc(C(C)C)cc2)c2ccccc2n1,662 nM
4,COc1cc(F)c2ncc(Cl)c([C@H](O)CN3CCC(NCc4cc5c(cn4)OCCO5)CC3)c2c1,95.2 nM
5,CCCCCCCCN1CCN(CCCCCCNc2c3ccccc3nc3ccccc23)CC1,162 nM
6,CN=C(NC)c1cccc(NC(=O)C=Cc2ccc(C=CC(=O)Nc3cccc(C(=NC)NC)c3)cc2)c1,164 nM
7,CC(=O)c1cc(N2CCOCC2)ccc1N,913 nM
8,CCOc1ccc(C(=O)Nc2cc3c(c(C(F)(F)F)c2)CCNC3)cc1Cl,1060 nM
9,Cn1cncc1C(=O)Nc1ccc(-c2cccc(-c3nc4cc(F)ccc4[nH]3)c2)cc1,818 nM
10,COC(=O)c1noc(C)c1I,802 nM
11,COc1cc(NC(=O)c2cc([N+](=O)[O-])ccc2NC(=O)CNC2CCCC(C)C2C)cc(OC)c1 (stereo unspecified),1040 nM
12,COCCCC1C(=O)OC2CCCC21 (stereo unspecified),699 nM
13,Cc1cc(N2CCCC2)nc(Nc2ccc(NC(=O)C(C)Oc3ccccc3)cc2)n1 (stereo unspecified),1140 nM
14,Cc1c(Cc2ccccc2)c(=O)oc2c(C)c3c(cc12)CN(CC(C)c1ccccc1)CO3 (stereo unspecified),454 nM
15,Cc1cccc(C(=O)Nc2ccnc(N3CCC(N(C)Cc4cccc(O)c4)CC3)c2)c1,920 nM
16,Cc1c(C(=O)N2CCCC(C(F)(F)F)C2)sc2cccc(F)c12 (stereo unspecified),599 nM
17,COc1cc2nc(N3CCC(CNC(=O)c4ccc(-c5ccc(-c6noc(C)n6)cc5)cc4)CC3)nc(N)c2cc1OC,139 nM
18,CCc1ccc(C2CCN(CCCCNC(=O)c3ccc(NC(=O)c4ccc(Cl)cc4)cc3)CC2)c(OCC(=O)OC)c1,1030 nM
19,CCCOc1ccc(C=C(CC(=O)O)c2nc3ccccc3s2)cc1OCC,554 nM
20,Cc1ccc(Nc2nccc(NCC(O)c3cccc(C)c3)n2)cc1 (stereo unspecified),1020 nM
21,O=C(/C=C/c1ccccc1)N1CCOC(CCN2CCC(c3ccccc3)CC2)(c2ccc(Cl)c(Cl)c2)C1 (stereo unspecified),516 nM
22,COc1ccc(C=NN=c2cc(C)[nH]c3c(C)cccc23)c2ccccc12,224 nM
23,CNc1ccc(CNCc2ccc(-c3ccc(-c4nc5cccc(C)c5[nH]4)cc3)cc2)cc1,319 nM
24,Cc1cnc(C(=O)Nc2cccc(-c3cccc(-c4nc5cccc(C)c5[nH]4)c3)c2)cn1,579 nM

row,Compound,XC50
1,COc1ccc(CCNC(C)Cc2ccc(C(=O)Nc3ccc(CC(C)NCCc4cccc(Cl)c4)cc3)cc2)cc1 (stereo unspecified),248 nM
2,CC(C)CCNc1nc2ccccc2nc1Nc1cccc(C(F)(F)F)c1,905 nM
3,ON=C1c2cc(OCCN3CCCCC3)c(Cl)cc2-c2cc(Cl)c(OCCN3CCCCC3)cc21,703 nM
4,Cc1c(CNCCCNc2cc(=O)c3ccccc3[nH]2)sc(C(F)=C(F)F)c1Br,836 nM
5,Cc1cccc2nc(-c3ccc(-c4ccc(NC(=O)Nc5ccc(F)c(F)c5F)cc4)cc3)[nH]c12,273 nM
6,O=C(/C=C/c1ccc(Cl)c(Cl)c1)NCCCCCN1CCC(C(=O)Nc2ccc(Cl)cc2)CC1,776 nM
7,CN1CCC(NCc2ccc(-c3ccc(C(F)(F)F)cc3)cc2)CC1,798 nM
8,c1cc(CN2CCC(CCN3CCCCC3)CC2)cc(-c2csc(-c3nc4ccccc4[nH]3)c2)c1,142 nM
9,CCc1ccc(N2C(=O)C3C(Cc4ccc(OC(C)(C)C)cc4)NC4(C(=O)N(Cc5ccccc5)c5ccc(F)cc54)C3C2=O)cc1 (stereo unspecified),800 nM
10,CCCn1c(Sc2ccc(C#N)c([N+](=O)[O-])c2)nnc1-c1ccc(N(C)C)cc1,125 nM
11,Nc1ccc(-c2cnc3[nH]cc(-c4ccc(C(=O)O)cc4)c3c2)cn1,964 nM
12,Cc1cc(NCC(c2ccccc2)c2ccccc2)nc(NCC2CCCCC2)n1,507 nM
13,CCOc1cc(C(=O)Nc2ccc3nc(N4CCN(C)CC4)cc(C)c3c2)cc(OCC)c1OCC,847 nM
14,NCC(NC(=O)c1ccc(-c2c[nH]c3ncccc23)s1)c1ccccc1 (stereo unspecified),546 nM
15,O=C(N[C@@H](Cc1ccccc1)C(=O)NC1CCCCCC1)c1ccc(O)c(-c2cccc(C(F)(F)F)c2)c1,735 nM
16,Cc1ccc(NC(=O)c2cc(Br)cc(N3CCC(N(C)C)CC3)c2)cc1F,840 nM
17,CCn1nc(C(=O)NC2CCOc3ccccc32)c2ccccc2c1=O (stereo unspecified),1230 nM
18,CCCN1CCN(c2cc(S(=O)(=O)Nc3ccc(C(=O)NCc4cccc(C(F)(F)F)c4)cc3)ccc2OC)CC1,1010 nM
19,CC(C)C[C@@H](/C=N/NC(N)=O)NC(=O)[C@H](CC(C)C)NC(=O)[C@H](CC(C)C)NC(=O)OCc1ccccc1,150 nM
20,COc1cc(N)c(Cl)cc1C(=O)NCC1CCN(c2nc(C)cc(C)n2)CC1,509 nM
21,O=C1CSc2ccc(CNC3CCN(CCc4c(Cl)cnc5ccc(F)cc45)CC3)nc2N1,427 nM
22,O=S(=O)(Nc1ccc(CCN2CCC(N3CCCCC3)CC2)cc1)c1ccccc1C(F)(F)F,1020 nM
23,Nc1nc(N)c2c(ccc3nn(Cc4ccccc4)cc32)n1,215 nM
